# Measured values from patent publication US6544966B1, “Agents promoting laminin production in skin cells” (Shiseido Company, Ltd., priority 1998, dated 2003).
# Values joined by “and” are separate entries in the source; they are usually repeats but may differ in a detail not shown here. Identical values can stand only once.
# Test system: epidermic stratum corneum cells
# Assay: Tests for the ability to produce laminin 5 (culture of epidermic stratum corneum cells, sandwich ELISA)
# Format: cell-based, human
# Description: Epidermic stratum corneum cells were isolated from the human preputium and cultured in an epidermic cell growth medium (KGM) having a low calcium concentration. To this culture medium were added bovine pituitary extract and EGF. After the cells were cultured in KGM up to the fourth generation, and treated with trypsin and EDTA to suspend adherent cells. Then, the culture was filtered to remove cell aggregates and thereby obtain a homogeneous cell suspension. The cells were collected by centrifugation and resuspended in DMEM-F12 (2:1)-0.1% BSA so as to give a cell density of 8×10^4 per ml. 0.5 ml each of this cell suspension was added to 0.5 ml of the same medium containing a twofold concentration of each test sample. Using a 24-well plate, incubation was carried out at 37° C. for 24 hours. After completion of the incubation, the culture supernatant was transferred to an Eppendorf tube and centrifuged at 15,000 rpm for 5 minutes. The supernatant was transferred to a new tube and stored at−20° C. till the day for the determination of laminin 5. In order to solubilize laminin 5 in the cells and bound to the culture plastics, a tris-HCl buffer (pH 7.4) containing various surfactants was added to each well and allowed to stand at −20° C. overnight. On the following day, the mixture was ultrasonicated and frozen again. On the following day, the mixture was thawed again and centrifuged at 15,000 rpm for 5 minutes. The supernatant was transferred to a tube and stored at −20° C. till the day for the determination of laminin 5.
# Laminin 5 present in the culture supernatant and the cell layer was determined by the sandwich ELISA method. A monoclonal antibody (BM165) to the laminin α3 chain of laminin 5 was attached to a solid layer of a 96-well ELISA plate. In order to measure laminin 5 in a sandwiched manner, a monoclonal antibody (6F12) to the laminin β3 chain was previously biotinized (b-6F12) and used as the other antibody. […] A sample was added to each of the wells in which a 3% gelatin-phosphate buffer solution containing b-6F12 had previously been placed. The final degree of dilution of the sample in the wells was 1/4 for the culture medium and 1/10 for the cell layer. After the antigen-antibody reaction was carried out at 37° C. for 2 hours, the wells were washed, and an avidin HRP (horseradish peroxidase) solution was added thereto and reacted for a period of 30 minutes to 1 hour. After washing, a solution of ABTS serving as a substrate for HRP was added thereto and the absorbance at 405 nm was measured with an ELISA plate reader. A calibration curve was constructed over a range of 0 to 40 ng/ml.
# The yield of laminin 5 was expressed by the sum of the amount liberated into the culture medium and the amount remaining in the cell layer.
row,Substance,Relative yield of laminin 5 based on control with no addition (%) Mean ± Standard deviation
1,lysophosphatidic acid [LPA-C18: 1],225.4 ± 12.5% and 254.0 ± 8.7%
2,"lysophosphatidylcholine [LPC-C12: 0, reference compound]",88.6 ± 5.1%
3,lysophosphatidylcholine [LPC-C14: 0],100.8 ± 5.6%
4,lysophosphatidylcholine [LPC-C16: 0],104.5 ± 3.3%
5,lysophosphatidylcholine [LPC-C18: 0],112.4 ± 8.0%
6,lysophosphatidylcholine [LPC-C18: 1],112.7 ± 6.7% and 147.4 ± 5.2%
7,lysophosphatidylcholine [LPC-C18: 2],133.6 ± 1.3% and 174.0 ± 5.4%
